From patent US11752175B2, “Compositions and methods for glaucoma” (AUFBAU MEDICAL INNOVATIONS LIMITED, priority 2018, dated 2023)

Tested on: glaucoma-associated-EV-complex in POAG patient's aqueous humor
Experiment: Treating POAG aqueous humor samples with bimatoprost, EDC fixation, negative staining and TEM imaging
Set-up: species or system human
Description: Methods for treating POAG aqueous humor samples with bimatoprost, and fixation of fluid with EDC, negative staining and TEM imaging. We sought to determine the effect of bimatoprost on EVs in aqueous humor of patients with glaucoma. To do this, we diluted the POAG aqueous humor sample with tris buffered saline (1:10 dilution) and added 1:1 volume of diluted POAG sample with either tris buffered saline (control) or bimatoprost. Lumigan was obtained directly from the dispensing bottle and was NOT diluted. 10 ul of POAG sample was mixed with 10 ul of TBS or 10 ul POAG sample was mixed with 10 ul of undiluted Lumigan. The tubes were then incubated in a thermocycler PCR machine and were allowed to sit for 72 hours at 37° C. The samples were then diluted (1:10). Next, we fixed with EDC on an electron microscopy grid using the following protocol. For 1 mls of EDC/ETT solution in 0.1 M 1-Methylimidazole buffer (pH 8.0). • 1. EDC-HCl powder should be stored at −20° C. under argon. To avoid condensation of humidity, only open bottles after they reached room temperature, i.e. take the bottle out of freezer 1 h before weighing out sample. • 2. EDC/5-ETT solution should be made at most 1 h prior to use. • 3. Pipette 5.76 ml of 0.1 M 1-Methylimidazole buffer (pH 8.0) into a 15 ml tube, vortex vigorously. • 4. Carefully spoon out the 0.078 g of ETT found in the “G” group, onto a piece of paper. Carefully pour the 0.078 g into the tube. • 5. Using the pH paper and pipet to check to be pH 8.0 • 6. Use a weighing paper to measure out 0.12 g of EDC. Carefully pour into the tube. Vortex vigorously. • 7. Discard unused solution. • 8. Using the pH paper and pipet to check to be pH 8.0 Poly L-lysine grids, EDC fixation, Glut-fixation, UA stain. • 1. Use formvar coated grids. • 2. Place them facing formvar side down to poly-lysine drops and let them sit for 5-10 min. • 3. Then you will withdraw the Poly-L-lysine • 4. Fasten down a piece of parchment paper to a 100 mm dish with tape or weight. Place grid down on parchment paper. Mix EDC solution with EVs • 1. Mix 2.5 ul of (Cold) EVs with 5 ul of (Cold) EDC solution in 1.5 ml siliconized tube. • 2. In the cold room, apply 5 μl sample (Aqueous humor) to the grid and wait 15 minutes to dry and for the EVs to settle to the bottom of the grid. • 3. Place in a humidified chamber and incubate at […] for at least 3 hours. Secondary Fixation with Glut • 1. Remove EDC-EV solution from the sample using a pipette. • 2. Fix with Glut, add 2-5 ul of glut fix and wait for 5 min • 3. Remove Glut with Pipet or lens paper Rinse Glut and EDC • 1. Apply water bubble to grid for 5 min • 2. Remove water bubble with pipette • 3. Add 5 ul of uranyl acetate onto grid (1 drop, blotting after the drop) • 4. Let grid dry, and place in grid box • 5. Take off stain with pipette Samples were then imaged with TEM. Treating large EV complexes with Bimatoprost breaks up the EV-complex, when compared to controls. To determine if glaucoma-associated-EV-aggregates visualized using the EDC fixation method were indeed a potential mediator of POAG, we hypothesized that treating it with a known glaucoma medication would change the morphology of the glaucoma-associated-EV-aggregates. Therefore, we opted to use Bimatoprost (lumigan), which is a ocular hypotensive agent that lowers IOP in normal, ocular hypertensive, and glaucomatous eyes. […]

CCNC(=O)CCC/C=C\C[C@@H]1[C@@H](/C=C/[C@@H](O)CCc2ccccc2)[C@H](O)C[C@@H]1O [bimatoprost]
evidence of large extracellular matrix or glaucoma-associated-EV-aggregates in TEM photographs (POAG aqueous humor samples treated with bimatoprost (FIG. 11 c-d)): no evidence of large extracellular matrix nor glaucoma-associated-EV-aggregates | number of glaucoma-associated-EV-complex, compared to POAG sample with placebo treatment (POAG patient's aqueous humor, first subject (FIG. 11), undiluted Lumigan 1:1 with 1:10 diluted sample, 37° C. for 72 hours, TEM): substantial reduction | size of POAG-associated EV complexes, compared to untreated glaucoma samples (aqueous humor of a patient with POAG (FIG. 11), TEM): reduces the size | size of POAG-associated EV complexes, compared to control-treated glaucoma samples (aqueous humor of second subject with glaucoma (FIG. 13), TEM): reduces the size | number of glaucoma-associated-EV-complexes, compared to placebo (buffered saline) (second human subject with glaucoma (FIG. 12-13), 37° C. for 72 hours, TEM): substantial reduction
